Assay results: patent US20150259331A1, “PROTOZOAN PARASITE GROWTH INHIBITORS” (Northeastern University, priority 2014, published 2015)

Experiments:
in vitro = details: for fraction unbound at 4 h, 5 μM: mice plasma
Method: Mice plasma (BALB/c mice, male—pool of 3 animals) was collected in-house using K2EDTA as anticoagulant. […] Glipizide (Cat #50402G) was purchased from Apin chemicals, Abingdon, Oxon. Albendazole (Cat #A4673) was purchased from Sigma. Phosphate buffered saline pH 7.4 (0.1 M sodium phosphate and 0.15 M sodium chloride) and RED device inserts were procured from Thermo Scientific, Meridian Rd., Rockford, Ill.
Further 1 mM stock was diluted 200-fold in mice plasma to prepare a concentration of 5 μM. The final DMSO concentration in plasma was 0.5%.
Rapid equilibrium dialysis was performed with a rapid equilibrium dialysis (RED) device containing dialysis membrane with a molecular weight cut-off of 8,000 Daltons. Each dialysis insert contains two chambers. The red chamber is for plasma while the white chamber is for buffer. A 200 μL aliquot of warfarin or test compound at 5 μM (triplicates) was separately added to the plasma chamber and 350 μL of phosphate buffer saline (pH 7.4) was added to the buffer chamber of the inserts. After sealing the RED device with an adhesive film, dialysis was performed at 37° C. with shaking at 100 rpm for 4 hours as per manufacturer's recommendation.
Recovery and stability: A 50 μL aliquot of warfarin or test compound was added to four 0.5 mL microfuse tubes. Two aliquots were frozen immediately (0 minute sample). The other two aliquots were incubated at 37° C. for 4 hours along with the RED device.
Following dialysis, an aliquot of 50 μL was removed from each well (both plasma and buffer side) and diluted with equal volume of opposite matrix (dialyzed with the other matrix) to nullify the matrix effect. Similarly, 50 μL of buffer was added to recovery and stability samples. An aliquot of 100 μL was submitted for LC-MS/MS analysis.
A 25 μL aliquot of warfarin and test compounds were crashed with 100 μL of acetonitrile containing internal standard (glipizide for warfarin and test compound) and vortexed for 5 minutes. The samples were centrifuged at 15,000 rpm at 4° C. for 10 min and 100 μL of supernatant was submitted for LCMS/MS analysis. Samples were monitored for parent compound in MRM mode using LC-MS/MS.

P. falciparum W2 = P. falciparum W2 assay; assay type: cell-based; details: Plasmodium falciparum; strain W2; read-out: P. falciparum W2 (EC50)

**Q.** Which recovery at 4 h, 5 μM (in vitro; male, BALB/c, mouse, pH 7.4) does the source give for `Fc1cccc(COc2ccc(Nc3ncnc4ccc(-c5cccc(N6CCOCC6)c5)cc34)cc2Cl)c1` [Compound 23a, N-(3-Chloro-4-((3-fluorobenzyl)oxy)phenyl)-6-(3-morpholinophenyl)quinazolin-4-amine] here?
**A.** Its recovery at 4 h, 5 μM is 100%.

**Q.** What about the “% Bound Mean (SD)” value (in vitro; male, BALB/c, mouse, plasma, pH 7.4) of the same compound?
**A.** The value was 99.6%.

**Q.** What about the fraction unbound at 4 h, 5 μM (in vitro; male, BALB/c, mouse, plasma, pH 7.4, % Bound R1, replicate 1, 37° C.) of the same compound?
**A.** Its fraction unbound at 4 h, 5 μM is 0.005.

**Q.** And the fraction unbound at 4 h, 5 μM (in vitro; male, BALB/c, mouse, plasma, pH 7.4, % Bound R2, replicate 2, 37° C.)?
**A.** The fraction unbound at 4 h, 5 μM was 0.003.

**Q.** What about the “% compound remaining at 4 h” value (in vitro; plasma stability, 37° C.) of the same compound?
**A.** The value was 85%.

**Q.** What about the EC50 (P. falciparum W2) of the same compound?
**A.** The EC50 was 680 nM.
